Consider one molecule from patent publication US20230330180A1 (priority 2022, published 2023).

This test concerns SARS-CoV-2 KOR-KCDC03-2020 strain. In words: Prophylactic immunofluorescent infection assay in Vero E6 cells. Format: cell-based. Particulars: Severe acute respiratory syndrome coronavirus 2, compound added one hour prior to virus, MOI 0.0125, 24 hours.

Molecules are shown by their SMILES.

By EC50 is commonly meant the concentration at which the effect is half-maximal. A low value points to greater potency. The molecule `CCC(CC)COC(=O)[C@H](C)N[P@](=O)(OC[C@H]1O[C@@](C#N)(c2ccc3c(N)ncnn23)[C@H](O)[C@@H]1O)Oc1ccccc1` [Remdesivir, remdesivir] had an EC50 of 12.9 µM.
